Source: ChEMBL document CHEMBL1201862, “PubChem BioAssay data set” (2004)
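Five compound concentrations were applied to cells in 96-well plates for 48 hours; endpoints were derived by simple linear interpolation of the resulting dose-response curve. GI50: concentration for 50% inhibition of growth.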 Active and inactive are the calls of the source. Cut-off read from the data, not from the text of the source: active = GI50 up to about 1.1 µM and inactive = higher.

Columns and labels:
Experiment in all cases: NCI tumour cell line growth inhibition, 48 h
[1] = test system: A498
[2] = test system: OVCAR-8
[3] = test system: MOLT-4
[4] = test system: COLO 205
[5] = test system: MCF7
[6] = test system: M14
[7] = test system: SK-MEL-5
[8] = test system: NCI-H226
[9] = test system: HCC 2998
[10] = test system: BT-549
[11] = test system: K562
[12] = test system: RPMI-8226
[13] = test system: HL-60
[14] = test system: IGROV-1
[15] = test system: SR
[16] = test system: HCT-116
[17] = test system: RXF 393
[18] = test system: CAKI-1
[19] = test system: TK-10
[20] = test system: A549
[21] = test system: OVCAR-4
[22] = test system: KM12
[23] = test system: OVCAR-5
[24] = test system: SK-MEL-28
[25] = test system: NCI/ADR-RES
[26] = test system: NCI-H460
[27] = test system: MDA-MB-231
[28] = test system: SW-620
[29] = test system: SF-539
[30] = test system: SK-MEL-2
[31] = test system: ACHN
[32] = test system: T47D
[33] = test system: NCI-H522
[34] = test system: Hs-578T
[35] = test system: Malme-3M
[36] = test system: SNB-19
[37] = test system: OVCAR-3
[38] = test system: UO-31
[39] = test system: HT-29
[40] = test system: SN12C
[41] = test system: LOX IMVI
[42] = test system: EKVX
[43] = test system: DU-145
[44] = test system: HOP-62
[45] = test system: SK-OV-3
[46] = test system: 786-0
[47] = test system: PC-3
[48] = test system: HCT-15
[49] = test system: HOP-92
[50] = test system: SF-295
[51] = test system: U-251
[52] = test system: SF-268
[53] = test system: UACC-62
[54] = test system: SNB-75
[55] = test system: MDA-MB-435
[56] = test system: CCRF-CEM
[57] = test system: NCI-H23
[58] = test system: UACC-257

O=C1c2ccccc2C(=O)c2c1nc1ccccc1c2-c1cncc(-c2c3c(nc4ccccc24)C(=O)c2ccccc2C3=O)c1
GI50 [1]: 9.18 µM (inactive)
GI50 [2]: 1.52 µM (inactive)
GI50 [3]: 0.418 µM (active)
GI50 [4]: 2.85 µM (inactive)
GI50 [5]: 5.19 µM (inactive)
GI50 [6]: 3.18 µM (inactive)
GI50 [7]: 1.29 µM (inactive)
GI50 [8]: 5.87 µM (inactive)
GI50 [9]: 18.5 µM (inactive)
GI50 [10]: 11.4 µM (inactive)
GI50 [11]: 1.31 µM (inactive)
GI50 [12]: 0.361 µM (active)
GI50 [13]: 1.75 µM (inactive)
GI50 [14]: 0.0596 µM (active)
GI50 [15]: 1.53 µM (inactive)
GI50 [16]: 4.17 µM (inactive)
GI50 [17]: 12.1 µM (inactive)
GI50 [18]: 9.84 µM (inactive)
GI50 [19]: 37.3 µM (inactive)
GI50 [20]: 3.29 µM (inactive)
GI50 [21]: 30.9 µM (inactive)
GI50 [22]: 3.61 µM (inactive)
GI50 [23]: 50.2 µM (inactive)
GI50 [24]: 12.4 µM (inactive)
GI50 [25]: 4.13 µM (inactive)
GI50 [26]: 2.43 µM (inactive)
GI50 [27]: 9.31 µM (inactive)
GI50 [28]: 6.15 µM (inactive)
GI50 [29]: 6.46 µM (inactive)
GI50 [30]: 8.45 µM (inactive)
GI50 [31]: 4.08 µM (inactive)
GI50 [32]: 2.33 µM (inactive)
GI50 [33]: 1.95 µM (inactive)
GI50 [34]: 3.69 µM (inactive)
GI50 [35]: 11.9 µM (inactive)
GI50 [36]: 23.8 µM (inactive)
GI50 [37]: 5.7 µM (inactive)
GI50 [38]: 1.55 µM (inactive)
GI50 [39]: 8.49 µM (inactive)
GI50 [40]: 3.98 µM (inactive)
GI50 [41]: 1.67 µM (inactive)
GI50 [42]: 3.85 µM (inactive)
GI50 [43]: 4.09 µM (inactive)
GI50 [44]: 6.56 µM (inactive)
GI50 [45]: > 77.1 µM (inactive)
GI50 [46]: 9.82 µM (inactive)
GI50 [47]: 2.15 µM (inactive)
GI50 [48]: 1.24 µM
GI50 [49]: 4.32 µM (inactive)
GI50 [50]: 8.32 µM (inactive)
GI50 [51]: 8 µM (inactive)
GI50 [52]: 6.08 µM (inactive)
GI50 [53]: 5.65 µM (inactive)
GI50 [54]: 5.69 µM (inactive)
GI50 [55]: 1.83 µM (inactive)
GI50 [56]: 0.562 µM (active)
GI50 [57]: 1.18 µM (inactive)
GI50 [58]: 8.63 µM (inactive)

O=C(OCc1ccccc1CN1CCOCC1)c1cccc(Br)c1
GI50 [1]: > 100 µM (inactive)
GI50 [2]: 44.5 µM (inactive)
GI50 [3]: < 0.01 µM (active)
GI50 [4]: 39.4 µM (inactive)
GI50 [5]: 37 µM (inactive)
GI50 [6]: 36.9 µM (inactive)
GI50 [7]: 17.7 µM (inactive)
GI50 [8]: 44.8 µM (inactive)
GI50 [9]: 28.3 µM (inactive)
GI50 [10]: 52.6 µM (inactive)
GI50 [11]: 6.3 µM (inactive)
GI50 [14]: 19.7 µM (inactive)
GI50 [16]: 32.9 µM (inactive)
GI50 [17]: 78.7 µM (inactive)
GI50 [18]: 40.2 µM (inactive)
GI50 [20]: 28.7 µM (inactive)
GI50 [21]: 20.9 µM (inactive)
GI50 [23]: 36.3 µM (inactive)
GI50 [24]: 33.1 µM (inactive)
GI50 [25]: 26.7 µM (inactive)
GI50 [26]: 83.8 µM (inactive)
GI50 [27]: 33.7 µM (inactive)
GI50 [28]: 53.6 µM (inactive)
GI50 [29]: 43.6 µM (inactive)
GI50 [30]: 22.3 µM (inactive)
GI50 [31]: 63.1 µM (inactive)
GI50 [32]: 18.7 µM (inactive)
GI50 [33]: 20.9 µM (inactive)
GI50 [34]: 29.9 µM (inactive)
GI50 [35]: 21.7 µM (inactive)
GI50 [36]: 93.1 µM (inactive)
GI50 [37]: 17.7 µM (inactive)
GI50 [38]: 62.2 µM (inactive)
GI50 [39]: 16 µM (inactive)
GI50 [40]: 39.3 µM (inactive)
GI50 [41]: 31.3 µM (inactive)
GI50 [42]: 34.5 µM (inactive)
GI50 [43]: 71 µM (inactive)
GI50 [44]: 53.2 µM (inactive)
GI50 [45]: > 100 µM (inactive)
GI50 [46]: 74.8 µM (inactive)
GI50 [47]: 37.2 µM (inactive)
GI50 [48]: 36.4 µM
GI50 [49]: 43.6 µM (inactive)
GI50 [51]: 47.6 µM (inactive)
GI50 [52]: 62.8 µM (inactive)
GI50 [53]: 33.6 µM (inactive)
GI50 [54]: 31.2 µM (inactive)
GI50 [55]: > 100 µM (inactive)
GI50 [57]: 27.9 µM (inactive)
GI50 [58]: 24.6 µM (inactive)

CCCCCCCCCCCCc1ccsc1-c1ccc(-c2ccc(-c3sc(-c4cc(CCCCCCCCCCCC)c(-c5ccc(-c6ccc(-c7sccc7CCCCCCCCCCCC)s6)s5)s4)cc3CCCCCCCCCCCC)s2)s1
GI50 [1]: > 100 µM (inactive)
GI50 [2]: > 100 µM (inactive)
GI50 [3]: > 100 µM (inactive)
GI50 [4]: > 100 µM (inactive)
GI50 [5]: > 100 µM (inactive)
GI50 [6]: > 100 µM (inactive)
GI50 [7]: > 100 µM (inactive)
GI50 [8]: > 100 µM (inactive)
GI50 [9]: > 100 µM (inactive)
GI50 [10]: > 100 µM (inactive)
GI50 [11]: > 100 µM (inactive)
GI50 [12]: > 100 µM (inactive)
GI50 [13]: 19.3 µM (inactive)
GI50 [14]: > 100 µM (inactive)
GI50 [15]: 22.8 µM (inactive)
GI50 [16]: > 100 µM (inactive)
GI50 [17]: 83.4 µM (inactive)
GI50 [18]: > 100 µM (inactive)
GI50 [19]: > 100 µM (inactive)
GI50 [20]: > 100 µM (inactive)
GI50 [21]: > 100 µM (inactive)
GI50 [22]: > 100 µM (inactive)
GI50 [23]: > 100 µM (inactive)
GI50 [24]: > 100 µM (inactive)
GI50 [25]: > 100 µM (inactive)
GI50 [26]: > 100 µM (inactive)
GI50 [27]: > 100 µM (inactive)
GI50 [28]: > 100 µM (inactive)
GI50 [29]: > 100 µM (inactive)
GI50 [30]: > 100 µM (inactive)
GI50 [31]: > 100 µM (inactive)
GI50 [32]: > 100 µM (inactive)
GI50 [33]: > 100 µM (inactive)
GI50 [34]: > 100 µM (inactive)
GI50 [36]: > 100 µM (inactive)
GI50 [37]: > 100 µM (inactive)
GI50 [38]: > 100 µM (inactive)
GI50 [39]: > 100 µM (inactive)
GI50 [40]: > 100 µM (inactive)
GI50 [42]: > 100 µM (inactive)
GI50 [43]: > 100 µM (inactive)
GI50 [44]: > 100 µM (inactive)
GI50 [45]: > 100 µM (inactive)
GI50 [46]: > 100 µM (inactive)
GI50 [47]: > 100 µM (inactive)
GI50 [48]: > 100 µM
GI50 [49]: > 100 µM (inactive)
GI50 [50]: > 100 µM (inactive)
GI50 [51]: > 100 µM (inactive)
GI50 [52]: > 100 µM (inactive)
GI50 [53]: > 100 µM (inactive)
GI50 [54]: > 100 µM (inactive)
GI50 [55]: > 100 µM (inactive)
GI50 [56]: 38.3 µM (inactive)
GI50 [57]: > 100 µM (inactive)
GI50 [58]: > 100 µM (inactive)
